According to patent US11945822B2, “Pyrazolo-triazine and/or pyrazolo-pxrimidine derivatives as selective inhibitor of cyclin dependent kinase” (QURIENT CO., LTD., priority 2018, dated 2024):

Each compound was assayed against T1, CDK7/Cyclin H/MNAT1 (Homo sapiens, UniProt P50613) (assay: Enzymatic assay for CDK7 (FRET based LANCE Ultra kinase assay)). Conditions: CDK7 over CDK1.
T1 construct: purchased Invitrogen PR6749B
Assay type: biochemical
Method in brief: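 LANCE Ultra TR-FRET kinase assay using a ULight-labeled peptide substrate and a Eu-labeled anti-phospho antibody, with ATP at its Km. Purified CDK/cyclin complex was added to compound after brief centrifugation.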

T1 sequence (P50613 whole entry): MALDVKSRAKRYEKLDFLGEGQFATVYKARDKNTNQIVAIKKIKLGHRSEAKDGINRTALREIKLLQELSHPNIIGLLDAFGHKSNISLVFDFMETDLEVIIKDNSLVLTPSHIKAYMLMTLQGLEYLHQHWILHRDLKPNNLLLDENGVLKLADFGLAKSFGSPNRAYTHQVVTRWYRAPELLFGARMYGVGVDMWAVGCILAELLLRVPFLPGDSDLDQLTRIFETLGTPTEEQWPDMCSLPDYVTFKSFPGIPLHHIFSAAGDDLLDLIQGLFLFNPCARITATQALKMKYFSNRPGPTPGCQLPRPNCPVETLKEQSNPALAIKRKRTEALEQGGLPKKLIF
T1 sequence (P51946 whole entry partner): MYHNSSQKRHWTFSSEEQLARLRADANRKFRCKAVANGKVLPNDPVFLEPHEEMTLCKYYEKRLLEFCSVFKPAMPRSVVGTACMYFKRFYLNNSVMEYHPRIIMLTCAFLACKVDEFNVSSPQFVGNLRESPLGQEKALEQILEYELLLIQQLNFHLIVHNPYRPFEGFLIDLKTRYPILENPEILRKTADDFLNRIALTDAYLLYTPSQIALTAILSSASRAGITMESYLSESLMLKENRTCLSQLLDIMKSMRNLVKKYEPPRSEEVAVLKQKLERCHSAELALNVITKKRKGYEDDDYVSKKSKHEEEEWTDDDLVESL
T1 sequence (P51948 whole entry partner): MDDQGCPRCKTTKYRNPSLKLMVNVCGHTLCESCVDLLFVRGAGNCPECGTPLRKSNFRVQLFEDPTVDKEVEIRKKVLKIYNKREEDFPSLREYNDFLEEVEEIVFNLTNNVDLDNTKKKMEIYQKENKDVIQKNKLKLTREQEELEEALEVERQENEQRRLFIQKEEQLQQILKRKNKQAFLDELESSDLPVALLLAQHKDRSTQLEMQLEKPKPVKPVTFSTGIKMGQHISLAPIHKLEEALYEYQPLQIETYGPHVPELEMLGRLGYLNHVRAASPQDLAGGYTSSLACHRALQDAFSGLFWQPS

CDK1/CDK7: Selectivity of CDK7 inhibition over CDK1 inhibition	Structure (SMILES)
A (A=greater than 200 fold)	CC(C)c1cnn2c(NCc3c(-n4cccn4)cccc3C(F)(F)F)nc(N3CCC(N)CC3)nc12 [Compound 46]
A (A=greater than 200 fold)	CC(C)c1cnn2c(NCc3ccccc3OC3CCN(C)CC3)nc(N3CCC(N)CC3)nc12 [Compound 66]
A (A=greater than 200 fold)	CC(C)c1cnn2c(NCc3ccccc3-n3cc4ccccc4n3)nc(N3CCC(N)CC3)nc12 [Compound 72]

Same assay, conditions: CDK7 over CDK2

CDK2/CDK7: Selectivity of CDK7 inhibition over CDK2 inhibition	Structure (SMILES)
A (A=greater than 200 fold)	CC(C)c1cnn2c(NCc3c(-n4cccn4)cccc3C(F)(F)F)nc(N3CCC(N)CC3)nc12 [Compound 46]
A (A=greater than 200 fold)	CC(C)c1cnn2c(NCc3ccccc3OC3CCN(C)CC3)nc(N3CCC(N)CC3)nc12 [Compound 66]

Structure (SMILES)	CDK2/CDK7: Selectivity of CDK7 inhibition over CDK2 inhibition
CC(C)c1cnn2c(NCc3ccccc3-n3cc4ccccc4n3)nc(N3CCC(N)CC3)nc12 [Compound 72]	B (B=less than 200 fold, but greater than 20 fold)

Same assay, conditions: CDK7 over CDK5

CDK5/CDK7: Selectivity of CDK7 inhibition over CDK5 inhibition	Structure (SMILES)
A (A=greater than 200 fold)	CC(C)c1cnn2c(NCc3c(-n4cccn4)cccc3C(F)(F)F)nc(N3CCC(N)CC3)nc12 [Compound 46]
A (A=greater than 200 fold)	CC(C)c1cnn2c(NCc3ccccc3OC3CCN(C)CC3)nc(N3CCC(N)CC3)nc12 [Compound 66]

Structure (SMILES)	CDK5/CDK7: Selectivity of CDK7 inhibition over CDK5 inhibition
CC(C)c1cnn2c(NCc3ccccc3-n3cc4ccccc4n3)nc(N3CCC(N)CC3)nc12 [Compound 72]	B (B=less than 200 fold, but greater than 20 fold)

Same assay, conditions: read-out: CDK7 enzymatic activity (IC50 range)

IC50 [nM]	Structure (SMILES)
< 100	CC(C)c1cnn2c(NCc3c(-n4cccn4)cccc3C(F)(F)F)nc(N3CCC(N)CC3)nc12 [Compound 46]
< 100	CC(C)c1cnn2c(NCc3ccccc3OC3CCN(C)CC3)nc(N3CCC(N)CC3)nc12 [Compound 66]
< 100	CC(C)c1cnn2c(NCc3ccccc3-n3cc4ccccc4n3)nc(N3CCC(N)CC3)nc12 [Compound 72]

Each compound was assayed against T2, CDK2/Cyclin A (Homo sapiens, UniProt P24941) (assay: Enzymatic assay for CDK2 (FRET based LANCE Ultra kinase assay)). Conditions: read-out: CDK2 enzymatic activity (IC50 range).
T2 construct: purchased Invitrogen PV6290
Assay type: biochemical
Method in brief: (§1)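 TR-FRET (LANCE Ultra) kinase assay at ATP Km, ULight-MBP peptide substrate (68 nM), 8-dose 4-fold compound series in DMSO. Enzymes: […]; 60 min at 23° C., stopped with EDTA plus Eu-anti-phospho-MBP antibody, read 665/615 nm after 60 min.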

IC50 [nM]	Structure (SMILES)
> 1000	CC(C)c1cnn2c(NCc3c(-n4cccn4)cccc3C(F)(F)F)nc(N3CCC(N)CC3)nc12 [Compound 46]
> 1000	CC(C)c1cnn2c(NCc3ccccc3OC3CCN(C)CC3)nc(N3CCC(N)CC3)nc12 [Compound 66]
100 to 1000	CC(C)c1cnn2c(NCc3ccccc3-n3cc4ccccc4n3)nc(N3CCC(N)CC3)nc12 [Compound 72]

The compounds below were run against T3, CDK5/p25 (Homo sapiens, UniProt Q00535) (assay: Enzymatic assay for CDK5 (FRET based LANCE Ultra kinase assay)). Conditions: read-out: CDK5 enzymatic activity (IC50 range).
T3 construct: purchased Invitrogen PR8543B
Assay type: biochemical
Method in brief: as §1

T3 sequence (Q00535 whole entry): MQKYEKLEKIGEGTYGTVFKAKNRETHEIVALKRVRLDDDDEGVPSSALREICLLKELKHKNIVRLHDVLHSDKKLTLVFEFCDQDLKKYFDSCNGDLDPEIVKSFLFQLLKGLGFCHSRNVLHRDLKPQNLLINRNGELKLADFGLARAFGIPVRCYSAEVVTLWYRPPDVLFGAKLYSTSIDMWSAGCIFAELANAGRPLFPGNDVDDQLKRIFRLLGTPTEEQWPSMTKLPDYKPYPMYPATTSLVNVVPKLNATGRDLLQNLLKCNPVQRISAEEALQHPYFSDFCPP
T3 sequence (Q15078 99-307 partner limits assumed): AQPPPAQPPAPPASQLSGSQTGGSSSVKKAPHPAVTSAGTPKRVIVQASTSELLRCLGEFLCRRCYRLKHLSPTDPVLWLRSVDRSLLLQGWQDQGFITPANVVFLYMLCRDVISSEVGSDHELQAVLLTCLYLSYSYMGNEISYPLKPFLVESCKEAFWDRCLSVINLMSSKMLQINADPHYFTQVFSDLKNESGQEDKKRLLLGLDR

IC50 [nM]	Structure (SMILES)
> 1000	CC(C)c1cnn2c(NCc3c(-n4cccn4)cccc3C(F)(F)F)nc(N3CCC(N)CC3)nc12 [Compound 46]
100 to 1000	CC(C)c1cnn2c(NCc3ccccc3OC3CCN(C)CC3)nc(N3CCC(N)CC3)nc12 [Compound 66]
100 to 1000	CC(C)c1cnn2c(NCc3ccccc3-n3cc4ccccc4n3)nc(N3CCC(N)CC3)nc12 [Compound 72]

What follows are compounds tested on MOLT-4 (assay: Cellular MOLT-4 viability assay (CellTiter-Glo, 72 hours)). Conditions: Homo sapiens, MOLT4 viability assay.
Assay type: cell-based
Method in brief: (§2)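 Cells were plated at line-specific densities and exposed to compound for 72 hours at 37 °C, 5% CO2, with DMSO-only wells as control (final DMSO below 0.1%). Viability was measured by CellTiter-Glo luminescence in duplicate.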

IC50 [nM]	Structure (SMILES)
1000 to 10000	CC(C)c1cnn2c(NCc3c(-n4cccn4)cccc3C(F)(F)F)nc(N3CCC(N)CC3)nc12 [Compound 46]
1000 to 10000	CC(C)c1cnn2c(NCc3ccccc3OC3CCN(C)CC3)nc(N3CCC(N)CC3)nc12 [Compound 66]
< 1000	CC(C)c1cnn2c(NCc3ccccc3-n3cc4ccccc4n3)nc(N3CCC(N)CC3)nc12 [Compound 72]

What follows are compounds tested on MM.1S (assay: Cellular MM.1S viability assay (CellTiter-Glo, 72 hours)). Conditions: Homo sapiens, MM1.S.
Assay type: cell-based
Method in brief: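 Cells seeded at 1×10^4/well (MM.1S), 5×10^3 (OVCAR-3) or 1×10^3 (A2780), grown in RPMI-1640 with 10% FBS. After 24 h, compound added at 0.0015–10 uM, final DMSO below 0.1%, for 72 h at 37° C. Viability read by CellTiter-Glo luminescence in duplicate, with curve fitting.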

IC50 [nM]	Structure (SMILES)
1000 to 10000	CC(C)c1cnn2c(NCc3c(-n4cccn4)cccc3C(F)(F)F)nc(N3CCC(N)CC3)nc12 [Compound 46]
≤ 1000	CC(C)c1cnn2c(NCc3ccccc3OC3CCN(C)CC3)nc(N3CCC(N)CC3)nc12 [Compound 66]
≤ 1000	CC(C)c1cnn2c(NCc3ccccc3-n3cc4ccccc4n3)nc(N3CCC(N)CC3)nc12 [Compound 72]

What follows are compounds tested against T4, CDK1/Cyclin B (Homo sapiens, UniProt P06493) (assay: Enzymatic assay for CDK1 (FRET based LANCE Ultra kinase assay)). Conditions: read-out: CDK1 enzymatic activity (IC50 range).
T4 construct: purchased Invitrogen PR4768C
Assay type: biochemical
Method in brief: as §1

T4 sequence (P06493 whole entry): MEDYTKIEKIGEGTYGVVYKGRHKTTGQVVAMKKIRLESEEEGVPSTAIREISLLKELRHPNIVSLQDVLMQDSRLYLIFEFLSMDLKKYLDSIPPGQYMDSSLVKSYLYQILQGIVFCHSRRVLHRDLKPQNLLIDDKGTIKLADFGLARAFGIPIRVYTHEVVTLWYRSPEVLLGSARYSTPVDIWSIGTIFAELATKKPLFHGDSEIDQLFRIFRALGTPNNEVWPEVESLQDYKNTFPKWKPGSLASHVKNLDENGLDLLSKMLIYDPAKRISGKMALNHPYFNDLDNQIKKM
T4 sequence (P14635 whole entry partner): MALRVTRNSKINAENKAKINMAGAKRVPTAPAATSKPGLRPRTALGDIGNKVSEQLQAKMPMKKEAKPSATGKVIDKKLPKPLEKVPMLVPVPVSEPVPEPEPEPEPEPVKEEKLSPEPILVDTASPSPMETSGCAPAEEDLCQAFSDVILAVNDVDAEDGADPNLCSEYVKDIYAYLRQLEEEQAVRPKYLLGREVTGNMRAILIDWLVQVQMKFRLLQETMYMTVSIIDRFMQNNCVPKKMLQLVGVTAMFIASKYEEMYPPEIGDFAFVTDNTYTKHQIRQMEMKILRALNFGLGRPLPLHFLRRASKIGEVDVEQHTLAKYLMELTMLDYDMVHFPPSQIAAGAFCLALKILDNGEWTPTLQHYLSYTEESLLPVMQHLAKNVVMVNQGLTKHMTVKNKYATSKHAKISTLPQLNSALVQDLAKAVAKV

IC50 [nM]	Structure (SMILES)
> 1000	CC(C)c1cnn2c(NCc3c(-n4cccn4)cccc3C(F)(F)F)nc(N3CCC(N)CC3)nc12 [Compound 46]
> 1000	CC(C)c1cnn2c(NCc3ccccc3OC3CCN(C)CC3)nc(N3CCC(N)CC3)nc12 [Compound 66]
100 to 1000	CC(C)c1cnn2c(NCc3ccccc3-n3cc4ccccc4n3)nc(N3CCC(N)CC3)nc12 [Compound 72]

These compounds were tested on HCT116 (assay: Cellular HCT116 viability assay (CellTiter-Glo, 72 hours)). Conditions: Homo sapiens, HCT-116.
Assay type: cell-based
Method in brief: as §2

IC50 [nM]	Structure (SMILES)
< 1000	CC(C)c1cnn2c(NCc3ccccc3OC3CCN(C)CC3)nc(N3CCC(N)CC3)nc12 [Compound 66]
< 1000	CC(C)c1cnn2c(NCc3ccccc3-n3cc4ccccc4n3)nc(N3CCC(N)CC3)nc12 [Compound 72]

What follows are compounds tested on RPMI-8226 (assay: Cellular RPMI-8226 viability assay (CellTiter-Glo, 72 hours)). Conditions: Homo sapiens.
Assay type: cell-based
Method in brief: as §2

IC50 [nM]	Structure (SMILES)
1000 to 10000	CC(C)c1cnn2c(NCc3c(-n4cccn4)cccc3C(F)(F)F)nc(N3CCC(N)CC3)nc12 [Compound 46]
1000 to 10000	CC(C)c1cnn2c(NCc3ccccc3OC3CCN(C)CC3)nc(N3CCC(N)CC3)nc12 [Compound 66]
< 1000	CC(C)c1cnn2c(NCc3ccccc3-n3cc4ccccc4n3)nc(N3CCC(N)CC3)nc12 [Compound 72]

What follows are compounds tested on H460 (assay: Cellular H460 viability assay (CellTiter-Glo, 72 hours)). Conditions: Homo sapiens, NCI-H460.
Assay type: cell-based
Method in brief: as §2

IC50 [nM]	Structure (SMILES)
1000 to 10000	CC(C)c1cnn2c(NCc3c(-n4cccn4)cccc3C(F)(F)F)nc(N3CCC(N)CC3)nc12 [Compound 46]
< 1000	CC(C)c1cnn2c(NCc3ccccc3OC3CCN(C)CC3)nc(N3CCC(N)CC3)nc12 [Compound 66]
< 1000	CC(C)c1cnn2c(NCc3ccccc3-n3cc4ccccc4n3)nc(N3CCC(N)CC3)nc12 [Compound 72]

Each compound was assayed on MV4-11 (assay: Cellular MV4-11 viability assay (CellTiter-Glo, 72 hours)). Conditions: Homo sapiens.
Assay type: cell-based
Method in brief: as §2

IC50 [nM]	Structure (SMILES)
1000 to 10000	CC(C)c1cnn2c(NCc3c(-n4cccn4)cccc3C(F)(F)F)nc(N3CCC(N)CC3)nc12 [Compound 46]
< 1000	CC(C)c1cnn2c(NCc3ccccc3OC3CCN(C)CC3)nc(N3CCC(N)CC3)nc12 [Compound 66]
< 1000	CC(C)c1cnn2c(NCc3ccccc3-n3cc4ccccc4n3)nc(N3CCC(N)CC3)nc12 [Compound 72]
